The test system of one data set is SD rats. Nature of the data set: Subchronic toxicity test in SD rats: overall (NOAEL, urinalysis, bone marrow, histopathology). Type of data set: in vivo, Sprague-Dawley (SD) rats. As to conditions: daily oral administration, 28 days. The protocol:
(§1) The rats that were judged suitable for the subchronic toxicity study were randomly divided into four groups (10 rats/sex/group). The rats received the test sample by gavage once daily for 28 days. HZ1006 was administered to the rats at doses of 120, 60, 20 and 0 (control) mg/kg, and the dosage volume was 5 mL/kg. Half of the 80 rats (half male and half female) were selected randomly according to body weight and dissected at d28. The remaining rats were dissected at d42.
(§2) A Micro AUTION MA-4260 Autoanalyzer from Arkray Global Business, Inc. (kyoto, Japan), was used to analyze the animal urine samples. Parameters such as pH, specific gravity, nitrites, leukocytes, glucose, protein, urobilinogen, ketones, occult blood, bilirubin, and hemoglobin were tested.
(§3) Bone marrow samples were obtained according to the methods reported previously. We classified the bone marrow cells by immersion objective. […]

Experiment in data set [1]: as above
Type of data set: in vivo, Sprague-Dawley (SD) rats. To be noted: both sexes, Sprague-Dawley, rat, in vivo, daily oral administration, read-out: NOAEL (No Observed Adverse Effect Level). The protocol: as §1, §2, §3

SMILES strings stand for the structures.

The term NOAEL denotes the highest dose or exposure tested at which no adverse effect was seen. In the data set on SD rats, `CCCCCCCNc1cc(/C=C/C(=O)NO)ccc1OCCN(CC)CC` [HZ1006] gave a minimum toxic dose of 120 mg/kg. Besides, in data set [1], the no observed adverse effect level (NOAEL) at 28 days is 60 mg/kg.

The values are drawn from article PMC5201331, “Subchronic Toxicities of HZ1006, a Hydroxamate-Based Histone Deacetylase Inhibitor, in Beagle Dogs and Sprague-Dawley Rats” (International Journal of Environmental Research and Public …, 2016).
